Data published in ChEMBL document CHEMBL1139667, “Discovery and SAR study of novel dihydroquinoline containing glucocorticoid receptor ligands” (Bioorg Med Chem Lett, 2006).
pIC50: −log10 of the molar value. Activity calls are given as the source filed them. The rule behind the calls is not given here.

Experiments:
Glucocorticoid receptor [1] = target: T1, Glucocorticoid receptor (Homo sapiens, UniProt P04150); assay: Binding affinity to human GR
T1 sequence (P04150 whole entry): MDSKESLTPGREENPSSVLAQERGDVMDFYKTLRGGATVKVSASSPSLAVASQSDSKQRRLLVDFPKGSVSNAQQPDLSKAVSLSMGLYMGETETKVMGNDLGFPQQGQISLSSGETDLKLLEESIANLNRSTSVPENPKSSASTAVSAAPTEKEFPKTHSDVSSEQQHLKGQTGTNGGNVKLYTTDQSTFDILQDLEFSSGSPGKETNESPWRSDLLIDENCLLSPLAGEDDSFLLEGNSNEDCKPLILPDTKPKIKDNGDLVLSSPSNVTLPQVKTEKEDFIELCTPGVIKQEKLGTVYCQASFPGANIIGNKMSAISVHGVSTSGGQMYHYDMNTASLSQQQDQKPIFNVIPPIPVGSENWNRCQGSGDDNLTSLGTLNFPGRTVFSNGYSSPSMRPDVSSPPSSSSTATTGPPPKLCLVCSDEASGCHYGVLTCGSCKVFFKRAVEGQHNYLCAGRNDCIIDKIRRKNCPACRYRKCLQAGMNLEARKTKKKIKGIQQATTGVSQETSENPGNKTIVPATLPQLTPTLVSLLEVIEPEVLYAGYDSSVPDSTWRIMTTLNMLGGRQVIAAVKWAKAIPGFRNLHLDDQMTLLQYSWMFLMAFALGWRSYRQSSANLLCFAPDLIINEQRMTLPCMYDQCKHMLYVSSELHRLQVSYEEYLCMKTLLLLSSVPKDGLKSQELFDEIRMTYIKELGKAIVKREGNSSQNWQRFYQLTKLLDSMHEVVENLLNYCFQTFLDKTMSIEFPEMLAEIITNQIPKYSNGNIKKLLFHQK

Progesterone receptor = target: T2, Progesterone receptor (Homo sapiens, UniProt P06401); assay: Binding affinity to human PR
T2 sequence (P06401 whole entry): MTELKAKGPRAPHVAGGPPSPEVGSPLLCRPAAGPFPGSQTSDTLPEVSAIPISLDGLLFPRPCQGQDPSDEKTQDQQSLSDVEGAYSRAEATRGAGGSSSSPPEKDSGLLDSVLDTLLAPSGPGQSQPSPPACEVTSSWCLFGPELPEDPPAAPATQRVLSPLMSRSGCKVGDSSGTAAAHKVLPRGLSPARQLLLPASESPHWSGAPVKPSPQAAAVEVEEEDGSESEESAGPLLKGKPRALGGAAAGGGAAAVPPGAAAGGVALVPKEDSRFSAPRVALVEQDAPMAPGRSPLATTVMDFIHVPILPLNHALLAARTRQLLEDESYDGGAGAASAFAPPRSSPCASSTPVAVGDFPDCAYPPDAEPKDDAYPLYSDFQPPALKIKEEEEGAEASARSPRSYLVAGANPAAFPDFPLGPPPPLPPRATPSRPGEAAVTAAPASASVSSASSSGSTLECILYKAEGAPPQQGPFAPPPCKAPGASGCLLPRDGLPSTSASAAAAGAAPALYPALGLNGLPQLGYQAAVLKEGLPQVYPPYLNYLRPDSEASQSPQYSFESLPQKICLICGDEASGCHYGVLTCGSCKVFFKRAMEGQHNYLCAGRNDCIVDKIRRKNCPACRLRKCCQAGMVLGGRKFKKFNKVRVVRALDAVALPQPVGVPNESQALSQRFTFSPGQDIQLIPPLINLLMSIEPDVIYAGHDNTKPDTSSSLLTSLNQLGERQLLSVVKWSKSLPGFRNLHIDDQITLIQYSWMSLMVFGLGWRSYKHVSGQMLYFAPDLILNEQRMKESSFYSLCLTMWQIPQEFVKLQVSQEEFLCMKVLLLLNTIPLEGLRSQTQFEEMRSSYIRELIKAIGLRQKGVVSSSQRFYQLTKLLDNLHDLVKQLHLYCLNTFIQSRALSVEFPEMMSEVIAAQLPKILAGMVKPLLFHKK

HFF = assay: Inhibition of IL1-induced IL6 production in human foreskin fibroblast; format: functional, cell-based
[2] = target: T3, Mineralocorticoid receptor (Homo sapiens, UniProt P08235); assay: Binding affinity to human MR
T3 sequence (P08235 whole entry): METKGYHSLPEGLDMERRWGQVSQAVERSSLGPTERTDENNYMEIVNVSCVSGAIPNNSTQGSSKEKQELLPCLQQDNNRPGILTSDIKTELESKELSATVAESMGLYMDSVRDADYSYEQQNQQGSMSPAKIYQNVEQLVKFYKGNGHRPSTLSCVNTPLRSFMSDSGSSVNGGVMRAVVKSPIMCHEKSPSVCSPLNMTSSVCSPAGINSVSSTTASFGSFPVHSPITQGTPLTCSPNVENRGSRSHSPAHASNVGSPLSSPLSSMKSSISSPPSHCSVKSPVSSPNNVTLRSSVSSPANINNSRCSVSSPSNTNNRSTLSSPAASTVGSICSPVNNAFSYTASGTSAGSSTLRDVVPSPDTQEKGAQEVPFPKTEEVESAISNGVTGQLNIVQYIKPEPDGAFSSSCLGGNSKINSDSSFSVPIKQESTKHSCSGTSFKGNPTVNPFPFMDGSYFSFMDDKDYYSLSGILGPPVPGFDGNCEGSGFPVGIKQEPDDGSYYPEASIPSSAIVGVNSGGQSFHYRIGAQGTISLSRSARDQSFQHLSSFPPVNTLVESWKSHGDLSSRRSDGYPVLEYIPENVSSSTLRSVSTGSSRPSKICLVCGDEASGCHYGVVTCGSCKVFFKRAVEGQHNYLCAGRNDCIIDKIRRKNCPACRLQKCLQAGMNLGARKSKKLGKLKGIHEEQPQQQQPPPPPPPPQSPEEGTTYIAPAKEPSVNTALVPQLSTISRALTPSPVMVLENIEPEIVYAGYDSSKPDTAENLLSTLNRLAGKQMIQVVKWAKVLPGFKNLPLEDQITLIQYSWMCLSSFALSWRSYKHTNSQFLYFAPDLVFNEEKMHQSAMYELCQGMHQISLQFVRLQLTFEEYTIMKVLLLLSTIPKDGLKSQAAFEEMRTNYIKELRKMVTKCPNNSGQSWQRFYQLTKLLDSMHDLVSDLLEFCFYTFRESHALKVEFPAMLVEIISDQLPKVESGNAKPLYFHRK

Estrogen receptor = Estrogen receptor (Homo sapiens, UniProt Q92731+P03372); assay: Binding affinity to human ER; format: protein assay
Glucocorticoid receptor [3] = target: T1, Glucocorticoid receptor; assay: Inhibition of Dexamethasone induced GR transactivation of MMTV luciferase in HeLa cells; format: functional, cell-based

Compound	pIC50 (Glucocorticoid receptor [1])	pIC50 (Progesterone receptor)	pIC50 [2]	IC50 (Estrogen receptor) [nM]	pIC50 (Glucocorticoid receptor [3])	Activity (HFF)
COc1ccccc1-c1ccc2c(c1)C(CSC(C)=O)=CC(C)(C)N2	< 5.70	6.21	–	–	–	–
CCCSCC1=CC(C)(C)Nc2ccc(-c3ccccc3OC)cc21	5.99	5.80	–	–	–	–
COc1ccccc1-c1ccc2c(c1)C(C)=CC(C)(C)N2	< 5.70	< 5.70	–	–	–	–
C=CCSCC1=CC(C)(C)Nc2ccc(-c3ccccc3-c3ccccc3)cc21	< 5.70	< 5.70	–	–	–	–
C=CCSCC1=CC(C)(C)Nc2ccc(-c3ccccc3[N+](=O)[O-])cc21	< 5.70	< 5.70	–	–	–	–
CCC(C)CSCC1=CC(C)(C)Nc2ccc(-c3ccccc3OC)cc21 (centres undefined)	6.52	< 5.70	–	–	–	–
COc1ccccc1-c1ccc2c(c1)C(CSCCc1ccccc1)=CC(C)(C)N2	6.71	< 5.70	–	–	–	–
COC(=O)CSCC1=CC(C)(C)Nc2ccc(-c3ccccc3OC)cc21	< 5.70	< 5.70	–	–	–	–
C=CCOCC1=CC(C)(C)Nc2ccc(-c3ccccc3OC)cc21	< 5.70	< 5.70	–	–	–	–
COc1ccccc1-c1ccc2c(c1)C(CSC1CCCC1)=CC(C)(C)N2	6.26	< 5.70	–	–	–	–
C=CCNCC1=CC(C)(C)Nc2ccc(-c3ccccc3OC)cc21	< 5.70	< 5.70	–	–	–	–
CNC(=O)CSCC1=CC(C)(C)Nc2ccc(-c3ccccc3OC)cc21	< 5.70	< 5.70	–	–	–	–
COc1ccccc1-c1ccc2c(c1)C(CSC1CCCCC1)=CC(C)(C)N2	6.43	< 5.70	–	–	–	–
CC1(C)C=C(CSCCc2ccccc2)c2cc(-c3cccc(O)c3Cl)ccc2N1	6.66	5.85	< 5.70	> 2000	6.59	inactive
COc1ccccc1-c1ccc2c(c1)C(CSc1ccccc1)=CC(C)(C)N2	6.09	< 5.70	–	–	–	–
COc1ccccc1-c1ccc2c(c1)C(CSCc1ccccc1)=CC(C)(C)N2	< 5.70	6.18	–	–	–	–
COc1ccccc1-c1ccc2c(c1)C(CSc1ccc(Cl)cc1)=CC(C)(C)N2	6.10	< 5.70	–	–	–	–
C=CCSCC1=CC(C)(C)Nc2ccc(-c3cccc(O)c3Cl)cc21	6.89	6.02	–	–	–	–
C=CCSCC1=CC(C)(C)Nc2ccc(-c3ccccc3OCC)cc21	< 5.70	< 5.70	–	–	–	–
COc1ccccc1-c1ccc2c(c1)C(CSCCC(C)C)=CC(C)(C)N2	6.15	< 5.70	–	–	–	–
C=CCSCC1=CC(C)(C)Nc2ccc(-c3ccccc3C(F)(F)F)cc21	< 5.70	< 5.70	–	–	–	–
COc1ccc(F)cc1-c1ccc2c(c1)C(CSCCc1ccccc1)=CC(C)(C)N2	7.08	< 5.70	< 5.70	> 2000	7.35	inactive

Now from value to molecule, other results behind:

pIC50 (Glucocorticoid receptor [1])	pIC50 (Progesterone receptor)	pIC50 [2]	IC50 (Estrogen receptor) [nM]	pIC50 (Glucocorticoid receptor [3])	Compound	Activity (HFF)
< 5.70	< 5.70	–	–	–	C=CCSCC1=CC(C)(C)Nc2ccc(-c3ccc(OC)cc3)cc21	–
< 5.70	6.44	–	–	–	C=CCSCC1=CC(C)(C)Nc2ccc(-c3ccccc3F)cc21	–
< 5.70	< 5.70	–	–	–	C=CCSCC1=CC(C)(C)Nc2ccc(-c3c(OC)cccc3OC)cc21	–
6.00	6.34	–	–	–	C=CCSCC1=CC(C)(C)Nc2ccc(-c3cccc(OC)c3)cc21	–
< 5.70	< 5.70	–	–	–	C=CCSCC1=CC(C)(C)Nc2ccc(-c3cccc(OCC)c3)cc21	–
< 5.70	< 5.70	–	–	–	C=CCSCC1=CC(C)(C)Nc2ccc(-c3ccccc3C)cc21	–
< 5.70	< 5.70	–	–	–	C=CCSCC1=CC(C)(C)Nc2ccc(-c3cc(OC)ccc3OC)cc21	–
6.72	5.85	–	–	–	C=CCSCC1=CC(C)(C)Nc2ccc(-c3cc(F)ccc3OC)cc21	–
< 5.70	< 5.70	–	–	–	C=CCSCC1=CC(C)(C)Nc2ccc(-c3ccccc3)cc21	–
< 5.70	< 5.70	–	–	–	C=CCSCC1=CC(C)(C)Nc2ccc(-c3cccc(OC)c3OC)cc21	–
6.44	6.34	–	–	–	C=CCSCC1=CC(C)(C)Nc2ccc(-c3ccccc3OC)cc21	–
